Results published in US20170014409A1, “TREATING INFLAMMATION USING SERELAXIN” (priority 2012, published 2017).

Tests used:
[1] = system: sST-2; assay: Serum sST-2 measured by EIA kit (PRESAGE sST-2 assay) in heart failure subjects treated 48 hours with serelaxin or placebo; assay type: in vivo, human
Experimental: Samples were collected from subjects enrolled in a multi-center, randomized, double-blind, placebo-controlled clinical trial, which was conducted to determine the safety and efficacy of serelaxin (recombinant human serelaxin) in subjects with heart failure, as described in Teerlink et al. (supra).
Serum was collected from 218 subjects (supra) for whom a baseline level of sST-2 as well as a post-serelaxin treatment level of sST-2 was determined. sST-2 was found at a lower limit of quantitation of 3.1 ng/ml and an upper limit of quantitation of 200 ng/ml. sST-2 was measured via the EIA kit (see Example 7 for more detail) and exact clinical measurements are summarized in Table 1 (see attached Table 1).
The difference between the placebo group and each of the serelaxin dose groups was statistically significant at 48 hours.
At baseline, geometric means across treatment groups ranged from 47 ng/ml to 60 ng/ml, i.e., 55 percent of the treated subjects had sST-2 concentrations that exceeded the normal range of 33.5 ng/ml in females and 49.3 ng/ml in males. […] This established that serelaxin transiently upregulates sST-2.
FIG. 3 depicts a between-treatment analysis of sST-2 by visit, comparing a change from baseline in sST-2 geometric means between the serelaxin groups compared to the placebo group at 3 time points. […] The differences subsided so that by Day 5, changes from baseline in 3 of the 4 serelaxin groups, as well as the pooled serelaxin group, were no different than change from baseline in the placebo group. By Day 14, the changes from baseline in all of the serelaxin groups were not different from change in the placebo group. As above, this establishes that serelaxin transiently up-regulates sST-2.
sST-2 levels were measured with the EIA Test Kit & PRESAGE sST-2 Assay (from Critical Diagnostics, NY) according to the manufacturer's instructions. Alternatively, other assays could be used such as the QUANTIKINE ST2/IL-1 R4 Immunoassay (from R&D Systems, Inc., MN).
The EIA test kit is a quantitative sandwich monoclonal ELISA in a 96 well plate format for measurement of sST-2 in serum or plasma. Diluted serum from 218 subjects was loaded into the appropriate wells in the anti-ST-2 antibody coated plate and incubated for the prescribed time. Following a series of steps, where reagents were washed from the plate, and additional reagents were added and subsequently washed out, the analyte sST-2 was detected by addition of a colorimetric reagent. The resulting signal was measured spectroscopically at 450 nm. The assay was conducted according to the parameters described in the assay description of the EIA test kit with all prescribed reagents and materials.

[2] = wide range of doses; up to six months of continuous treatment; cited from earlier work

Substance: serelaxin
- change from baseline in sST-2 concentrations at 48 hours ([1]; 48 hours of treatment, all serelaxin dose groups, placebo decreased 30%, p<0.05 for all serelaxin groups vs. placebo): increase from baseline
- change from baseline in sST-2 geometric means vs. placebo group at 48 hours ([1]; 48 hours, all serelaxin groups and pooled serelaxin group, between-treatment analysis (FIG. 3)): significantly different
- change from baseline in sST-2 geometric means vs. placebo group at Day 5 ([1]; Day 5, 3 of the 4 serelaxin groups and pooled serelaxin group): no different
- change from baseline in sST-2 geometric means vs. placebo group at Day 14 ([1]; Day 14, all serelaxin groups): not different
- safety in nonclinical toxicology studies [2]: safe
